The values below are quoted from earlier work in patent US20220378861A1, “COMPOSITIONS AND METHODS FOR DELIVERING CANNABINOIDS USING MICRONEEDLE DEVICES TO THE SKIN” (AQUAVIT PHARMACEUTICALS, INC., priority 2019, published 2022).

The conditions of this series: oral absorption, after extensive first pass liver metabolism.

For the compound `CCCCCc1cc(O)c2c(c1)OC(C)(C)[C@@H]1CCC(C)=C[C@@H]21` [THC, tetrahydrocannabinol], the “bioavailability to the systemic circulation” value is listed as 6%.
